Measurements reported in article PMC3958129, “Enzyme kinetics and distinct modulation of the protein kinase N family of kinases by lipid activators and small molecule inhibitors” (Bioscience Reports, 2014).
Where two headings read alike, the source gives them in different places. Blank lines part the entries; values can stand above or below the compound they belong to.

Columns and labels:
[1] = test system: PKN2; design: method as in PMID 17850214, PMID 10998351; conditions: ref [29],[30], cited from earlier work
[2] = test system: RIP2; conditions: read-out: IC50 RIP2; panel of over 70 protein kinases; ref [29]; cited from earlier work
[3] = test system: Lck; conditions: read-out: IC50 Lck; panel of over 70 protein kinases; ref [29]; cited from earlier work
[4] = test system: Src; conditions: read-out: IC50 Src; panel of over 70 protein kinases; ref [29]; cited from earlier work
[5] = test system: CK1δ; conditions: read-out: IC50 CK1δ; panel of over 70 protein kinases; ref [29]; cited from earlier work
[6] = test system: CSK; conditions: read-out: IC50 CSK; panel of over 70 protein kinases; ref [29]; cited from earlier work
[7] = target: T1, PKN3 (Homo sapiens, UniProt Q6P5Z2); assay: PKN3 kinase inhibition, off-chip mobility shift assay; type: biochemical; design: Full-length, FLAG-tagged human PKN1, PKN2 and PKN3 were expressed in mammalian HEK-293 cells
[8] = target: T2, PKN1 (Homo sapiens, UniProt Q16512); assay: PKN1 kinase inhibition, off-chip mobility shift assay; type: biochemical; design: Full-length, FLAG-tagged human PKN1, PKN2 and PKN3 were expressed in mammalian HEK-293 cells; host or cells: HEK-293 (transient transfection, pcDNA4/TO)
[9] = target: T2, PKN1; assay: Bisubstrate steady-state kinetic analysis of PKN1 in the presence of arachidonic acid
[10] = target: T3, PKN2 (Homo sapiens, UniProt Q16513); assay: Bisubstrate steady-state kinetic analysis of PKN2 in the presence of arachidonic acid
[11] = target: T1, PKN3; assay: Bisubstrate steady-state kinetic analysis of PKN3 in the presence of arachidonic acid
[12] = target: T1, PKN3; assay: Lipid activation of PKN3 kinase activity, off-chip mobility shift assay; type: biochemical; design: Full-length, FLAG-tagged human PKN1, PKN2 and PKN3 were expressed in mammalian HEK-293 cells
Description: (§1) Lipids were supplied as a solid powders, ethanol, or chloroform solutions. All solids were dissolved directly into assay buffer and briefly water bath sonicated at room temperature for 10 min. Lipids supplied as solutions in organic solvent were dried under a gentle stream of nitrogen, resuspended in assay buffer, and similarly sonicated. All lipids were prepared fresh daily.
(§2) The activity of all PKN proteins was monitored through the use of a highly sensitive off-chip mobility shift assay utilizing a LabChip EZ Reader II instrument (Caliper Life Sciences/PerkinElmer); this assay format has been described elsewhere. Kinase activity was monitored through the phosphorylation of a 5-FAM-labelled PKN substrate peptide found through Pfizer in-house optimization efforts and derived from the amino acid sequence of GSK3α (accession no. AAH51865.1) with the following sequence: 5-FAM-C6-[…]-NH2. The likely site of phosphorylation is underlined, as determined through comparison with the published phosphorylation consensus sequence for PKN1 and PKN3 substrates. Reaction buffer contained 25 mM Tris, pH 8.0, 5 mM MgCl2, 0.002% CHAPS and 2 mM DTT, with indicated protein, ATP and peptide concentrations. Peptide concentration was adjusted according to purity and peptide content. For inhibition studies, the inhibitor was pre-incubated with enzyme for 15 min at room temperature. All reactions were initiated with ATP and conducted at room temperature (~22°C). Reactions were terminated by the addition of EDTA, pH 8.0, at a final concentration of 25 mM. All reaction rates were determined to be linear with respect to time and enzyme concentration where no more than 20% of peptide substrate had been converted to product. Aliquots of each reaction were transferred in duplicate to a 384-well plate and analysed on a LabChip EZ Reader II with separation buffer containing 100 mM Hepes, pH 7.5, 0.015% Brij-35, 1 mM EDTA, 0.1% CR3 coating reagent, 1×CR8 coating reagent and 5% DMSO, with the following settings: downstream voltage: −500 V, upstream voltage: −2300 V, base pressure: −0.5 psi; screen pressure: −1.7 psi.
Ki values for representative inhibitors were determined by fitting initial reaction velocities to eqn (2) for competitive inhibition using the method of non-linear least-squares using GraphPad Prism. Turnover number (kcat) was calculated by normalizing Vmax values for enzyme concentration.
(§3) Figure 2 PKN responses to lipid activators in biochemical assays Lipids were prepared as described under the Experimental section, and kinase activity of PKN isoforms was measured using off-chip mobility shift assay described in the Methods section. Each lipid was titrated in the presence of 1 nM, 5 nM and 3 nM PKN1–3, respectively, 3 μM peptide and 500 μM ATP. vi is the initial rate at each concentration of lipid activator and vo is the initial rate in the absence of lipid.

[13] = target: T2, PKN1; assay: Lipid activation of PKN1 kinase activity, off-chip mobility shift assay; type: biochemical; design: Full-length, FLAG-tagged human PKN1, PKN2 and PKN3 were expressed in mammalian HEK-293 cells; host or cells: HEK-293 (transient transfection, pcDNA4/TO); conditions: saturating ATP (500 μM), 3 μM peptide, 1 nM PKN1; for PKN1 Maximal fold activation: increase in initial rate
Description: as §1
as §2, with “psi. […]” for “psi.”
as §3

[14] = target: T3, PKN2; assay: Lipid activation of PKN2 kinase activity, off-chip mobility shift assay; type: biochemical; design: Full-length, FLAG-tagged human PKN1, PKN2 and PKN3 were expressed in mammalian HEK-293 cells; host or cells: HEK-293 (transient transfection, pcDNA4/TO)
Description: as §1
as §2, with “psi. […]” for “psi.”
as §3

[15] = 100 μM vs 0 μM arachidonic acid

T3 sequence (Q16513 whole entry): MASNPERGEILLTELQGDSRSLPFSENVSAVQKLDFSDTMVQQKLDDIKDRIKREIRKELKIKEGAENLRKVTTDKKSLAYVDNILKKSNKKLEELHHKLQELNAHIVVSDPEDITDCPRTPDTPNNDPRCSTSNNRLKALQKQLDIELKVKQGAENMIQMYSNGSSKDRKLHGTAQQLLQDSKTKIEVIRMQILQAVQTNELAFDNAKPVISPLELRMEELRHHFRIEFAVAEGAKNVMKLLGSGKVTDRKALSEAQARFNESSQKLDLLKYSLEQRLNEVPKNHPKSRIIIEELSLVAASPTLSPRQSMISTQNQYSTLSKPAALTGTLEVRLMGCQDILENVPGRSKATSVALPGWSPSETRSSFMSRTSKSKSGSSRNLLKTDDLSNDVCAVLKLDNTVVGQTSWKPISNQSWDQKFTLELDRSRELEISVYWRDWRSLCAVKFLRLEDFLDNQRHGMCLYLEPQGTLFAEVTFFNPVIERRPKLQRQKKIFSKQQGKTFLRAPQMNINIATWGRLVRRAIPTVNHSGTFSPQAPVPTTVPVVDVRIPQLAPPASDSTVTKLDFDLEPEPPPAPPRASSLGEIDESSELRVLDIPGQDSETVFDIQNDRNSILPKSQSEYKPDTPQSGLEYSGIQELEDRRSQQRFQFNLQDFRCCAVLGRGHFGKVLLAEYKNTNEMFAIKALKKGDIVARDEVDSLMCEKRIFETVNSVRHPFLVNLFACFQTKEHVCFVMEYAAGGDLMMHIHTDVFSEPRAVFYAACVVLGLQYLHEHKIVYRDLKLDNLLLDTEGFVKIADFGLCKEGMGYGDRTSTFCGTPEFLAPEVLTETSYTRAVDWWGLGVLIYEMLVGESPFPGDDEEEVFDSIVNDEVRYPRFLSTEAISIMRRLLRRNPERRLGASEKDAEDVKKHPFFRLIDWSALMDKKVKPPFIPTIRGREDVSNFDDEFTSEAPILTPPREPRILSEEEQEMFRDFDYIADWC
T2 sequence (Q16512 whole entry): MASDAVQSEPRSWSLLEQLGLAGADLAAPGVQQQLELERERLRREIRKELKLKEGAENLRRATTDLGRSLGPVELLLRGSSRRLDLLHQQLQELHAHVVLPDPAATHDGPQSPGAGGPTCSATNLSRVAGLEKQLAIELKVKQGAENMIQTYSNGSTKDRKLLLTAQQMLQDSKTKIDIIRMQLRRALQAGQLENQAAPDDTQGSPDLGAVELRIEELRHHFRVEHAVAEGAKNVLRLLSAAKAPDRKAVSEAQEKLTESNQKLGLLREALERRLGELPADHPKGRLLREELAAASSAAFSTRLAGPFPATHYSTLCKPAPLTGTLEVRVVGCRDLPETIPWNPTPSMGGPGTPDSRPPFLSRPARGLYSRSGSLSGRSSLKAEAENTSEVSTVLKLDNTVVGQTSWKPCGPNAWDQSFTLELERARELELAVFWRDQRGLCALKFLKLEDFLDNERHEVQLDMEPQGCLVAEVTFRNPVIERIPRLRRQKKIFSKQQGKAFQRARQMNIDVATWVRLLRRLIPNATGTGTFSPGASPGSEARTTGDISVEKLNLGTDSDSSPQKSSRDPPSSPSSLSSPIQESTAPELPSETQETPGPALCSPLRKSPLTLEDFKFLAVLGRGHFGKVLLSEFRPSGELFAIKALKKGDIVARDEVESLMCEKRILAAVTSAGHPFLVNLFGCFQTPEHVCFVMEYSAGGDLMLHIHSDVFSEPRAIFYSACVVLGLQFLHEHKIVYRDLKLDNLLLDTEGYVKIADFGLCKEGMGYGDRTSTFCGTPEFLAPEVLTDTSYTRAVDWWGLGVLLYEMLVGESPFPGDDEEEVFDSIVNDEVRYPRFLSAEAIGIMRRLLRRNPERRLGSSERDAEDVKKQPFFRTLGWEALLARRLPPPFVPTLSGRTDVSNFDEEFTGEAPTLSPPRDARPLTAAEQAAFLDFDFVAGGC
T1 sequence (Q6P5Z2 whole entry): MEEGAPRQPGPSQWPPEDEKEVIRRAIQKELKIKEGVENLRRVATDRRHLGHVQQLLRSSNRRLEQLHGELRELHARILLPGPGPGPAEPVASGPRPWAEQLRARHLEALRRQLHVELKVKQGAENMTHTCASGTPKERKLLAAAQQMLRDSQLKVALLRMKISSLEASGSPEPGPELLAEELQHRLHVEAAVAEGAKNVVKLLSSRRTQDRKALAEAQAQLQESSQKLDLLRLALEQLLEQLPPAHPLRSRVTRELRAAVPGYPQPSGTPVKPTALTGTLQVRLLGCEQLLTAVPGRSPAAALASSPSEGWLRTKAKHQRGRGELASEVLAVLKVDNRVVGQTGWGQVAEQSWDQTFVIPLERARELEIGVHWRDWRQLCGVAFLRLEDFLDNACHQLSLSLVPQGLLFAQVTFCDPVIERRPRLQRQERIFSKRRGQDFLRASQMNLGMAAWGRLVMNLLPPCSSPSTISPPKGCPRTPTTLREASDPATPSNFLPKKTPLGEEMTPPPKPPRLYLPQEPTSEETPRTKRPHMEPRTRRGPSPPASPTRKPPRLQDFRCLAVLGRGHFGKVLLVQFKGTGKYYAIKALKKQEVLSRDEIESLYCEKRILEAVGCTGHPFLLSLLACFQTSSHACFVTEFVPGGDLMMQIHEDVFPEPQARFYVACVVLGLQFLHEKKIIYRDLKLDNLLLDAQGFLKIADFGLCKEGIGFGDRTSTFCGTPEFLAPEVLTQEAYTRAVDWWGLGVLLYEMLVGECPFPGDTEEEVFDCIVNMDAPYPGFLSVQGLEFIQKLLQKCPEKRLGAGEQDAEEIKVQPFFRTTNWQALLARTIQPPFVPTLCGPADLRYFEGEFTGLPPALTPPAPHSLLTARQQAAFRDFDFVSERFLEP

Compound: Cc1ccc(-c2nn(C(C)(C)C)c3ncnc(N)c23)cc1 [Compound 8, PP1]
- PKN2 remaining activity ([1]; at 1 μM): 84%
- IC50 [2]: 26 nM
- IC50 [5]: 170 nM
- IC50 [6]: 640 nM
- Ki [7]: 1.3 ± 0.1 nM
- Ki [8]: > 5000 nM

- Ki ([8]; absence of lipids, fit to competitive inhibition, ±S.D., n=2, read-out: PKN1, Ki): 700 ± 200 nM
Compound: C[C@@H](N)[C@H]1CC[C@H](C(=O)Nc2ccncc2)CC1 [Compound 7, Y27632]

- Kia of PKN1 (equilibrium dissociation constant of ATP) ([9]; 100 μM arachidonic acid): 19 ± 10 µM
- kcat of PKN1 ([9]; 100 μM arachidonic acid): 13 ± 6 s⁻¹
- effect on ATP KM for PKN1 [9, 15]: relatively unaffected
- increase in catalytic efficiency (kcat/KM,Pep) of PKN1 [9, 15]: 32 fold
- increase in kcat for PKN1 [9, 15]: 18 fold
- Kia of PKN2 (equilibrium dissociation constant of ATP) ([10]; 100 μM arachidonic acid): 2 ± 1 µM
- kcat of PKN2 ([10]; 100 μM arachidonic acid): 0.9 ± 0.1 s⁻¹
- increase in catalytic efficiency (kcat/KM,Pep) of PKN2 [10, 15]: 12 fold
- increase in kcat for PKN2 [10, 15]: 9 fold
- increase in kcat/KM,ATP of PKN2 [10, 15]: 45 fold
- reduction of ATP KM for PKN2 [10, 15]: 6 fold
- Kia of PKN3 (equilibrium dissociation constant of ATP) ([11]; 5 μM arachidonic acid): 14 ± 3 µM
- kcat of PKN3 ([11]; 5 μM arachidonic acid): 1.1 ± 0.1 s⁻¹
- reduction of ATP KM for PKN3 ([11]; 5 μM vs 0 μM arachidonic acid): 3 fold
- effect on kcat for PKN3 ([11]; arachidonic acid at 5 μM): no effect
- decrease in KM,Pep of PKN3 ([11]; arachidonic acid at 5 μM vs 0 μM): 4 fold
- effect on PKN3 kinase activity ([12]; higher concentrations of arachidonic acid (above 5 μM)): significantly inhibited
- PKN3 Maximal fold activation ([12]; increase in initial rate, saturating ATP (500 μM), 3 μM peptide, 3 nM PKN3): <2 fold
- effect on PKN3 kinase activity ([12]; relatively low (5 μM) concentration of arachidonic acid): slightly stimulated
- PKN1 Maximal fold activation [13]: 16 fold
- PKN1 Maximal fold activation ([13]; listed as arachidonic acid): 10–16 fold
- EC50 ([13]; lipid activator): 11000 ± 1000 nM
- effect on PKN2 kinase activity ([14]; in words, saturating ATP): increased
- PKN2 Maximal fold activation ([14]; increase in initial rate, saturating ATP (500 μM), 3 μM peptide, 5 nM PKN2): 7 fold
- EC50 ([14]; lipid activator, saturating ATP (500 μM), 3 μM peptide, 5 nM PKN2): 9000 ± 1000 nM
Compound: CCCCC/C=C\C/C=C\C/C=C\C/C=C\CCCC(=O)O [Arachidonic Acid]
